Consider 26 compounds from patent US6407130B1, “Carboxamide-substituted benzimidazoles having tryptase-inhibiting activity” (Boehringer Ingelheim Pharma KG, priority 1999, dated 2002).

Structures can show the parent of a compound that is named as a salt.

This test has as its target T1, rh beta tryptase (Homo sapiens, UniProt Q15661).
T1 construct: purchased Promega
Nature of the test: tryptase inhibition test (cleavage of N-p-tosyl-Gly-Pro-Lys-para-nitroaniline, p-nitroaniline measured at 405 nm). The class given is biochemical. The following applies: Tris HCl buffer pH 7.4 with calcium and heparin; substrate 0.6 mM; 5 minutes' pre-incubation, 5 minutes incubation at 37° C. The protocol:
The compounds according to the invention are characterised by their tryptase-inhibiting activity. This ability to inhibit tryptase was investigated using the test described as follows. The measurement is carried out in Tris HCl buffer (100 mM), which additionally contains calcium (5 mM) and heparin ([…]), at pH 7.4. The standard used is rh beta tryptase which may be obtained commercially from Promega, for example. The substrate used is N-p-tosyl-Gly-Pro-Lys-para-nitroaniline in a concentration of 0.6 mM. The substrate is digested with tryptase to form p-nitroaniline which can be measured at 405 nm. Usually, an incubation period of 5 minutes and an incubation temperature of 37° C. are chosen. The enzyme activity used is 0.91 U/ml. The measurements are carried out in an Autoanalyser (Cobas Bio) made by Hofmann LaRoche. The potential inhibitory substances are used in concentrations of 10 μM in the screening, the inhibition of the tryptase being given in percent. The IC50 is determined at over 70% inhibition (concentration at which 50% of the enzyme activity is inhibited). After 5 minutes' pre-incubation of the potential inhibitory substances, the substrate is added to start the reaction, the formation of p-nitroaniline being taken as a measurement of the enzyme activity after 5 minutes, after testing the linearity.

T1 sequence (Q15661 31-275): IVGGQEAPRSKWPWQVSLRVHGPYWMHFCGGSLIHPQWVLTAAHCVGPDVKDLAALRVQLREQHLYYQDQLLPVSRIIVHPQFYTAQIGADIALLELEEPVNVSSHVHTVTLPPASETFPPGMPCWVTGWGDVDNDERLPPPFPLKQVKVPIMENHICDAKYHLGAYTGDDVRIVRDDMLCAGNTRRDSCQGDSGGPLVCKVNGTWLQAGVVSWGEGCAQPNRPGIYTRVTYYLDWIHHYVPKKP

The term IC50 denotes the point on the concentration scale where inhibition reaches its midpoint. For `Cn1c(CCc2ccc(C(=N)N)cc2)nc2cc(N(Cc3ccccc3)C(=O)CCc3cccc(C(=N)N)c3)ccc21` [Example 33, N-{2-[2-(4-Amidinophenyl)-ethyl]-1-methyl-benzimidazol-5-yl}-N-benzyl-[3-(3-amidinophenyl)-propionamide]-dihydrochloride], the IC50 was determined as 26 nM. The figure for `CC(C)CN(C(=O)CCc1ccc(C(=N)N)cc1)c1ccc2c(c1)nc(CCc1ccc(C(=N)N)cc1)n2C` [Example 5, N-{2-[2-(4-Amidinophenyl)-ethyl]-1-methyl-benzimidazol-5-yl}-N-isobutyl-[3-(4-amidinophenyl)-propionamide]-dihydrochloride] is 61 nM. The figure for `CN(C)CCCC(=O)N(Cc1cccc2ccccc12)c1ccc2c(c1)nc(CCc1ccc(C(=N)N)cc1)n2C` [Example 29, N-{2-[2-(4-Amidinophenyl)-ethyl]-1-methyl-benzimidazol-5-yl}-N-( - naphthylmethyl)-[4-dimethylamino-butanoic acid amide]-dihydrochloride] is 38 nM; for `CN(C)CCOCC(=O)N(Cc1cccc2ccccc12)c1ccc2c(c1)nc(CCc1ccc(C(=N)N)cc1)n2C` [Example 59, N-{2-[2-(4-Amidinophenyl)-ethyl]-1-methyl-benzimidazol-5-yl}-N-(α-naphthylmethyl)-[2-(2-dimethylaminoethoxy)-acetamide]-dihydrochloride] it is 66 nM; for `CN(C)CCCCC(=O)N(Cc1ccccc1)c1ccc2c(c1)nc(CCc1ccc(C(=N)N)cc1)n2C` [Example 26, N-{2-[2-(4-Amidinophenyl)-ethyl]-1-methyl-benzimidazol-5-yl}-N-benzyl-[5-dimethylamino-pentanoic acid amide]-dihydrochloride] it is 53 nM. The figure for `CN(CC(=O)N(Cc1cccc2ccccc12)c1ccc2c(c1)nc(CCc1ccc(C(=N)N)cc1)n2C)Cc1ccccc1` [Example 63, N-{2-[2-(4-Amidinophenyl)-ethyl]-1-methyl-benzimidazol-5-yl}-N-( - naphthylmethyl)-[2-(N-benzyl-N-methylamino)-acetamide]-dihydrochloride] is 28 nM; for `Cn1c(CCc2ccc(C(=N)N)cc2)nc2cc(N(Cc3ccccc3)C(=O)CCCNC(=N)N)ccc21` [Example 39, N-{2-[2-(4-Amidinophenyl)-ethyl]-1-methyl-benzimidazol-5-yl}-N-benzyl-[4-guanidino-butanoic acid amide]-dihydrochloride] it is 77 nM; for `Cn1c(CCc2ccc(C(=N)N)cc2)nc2cc(N(Cc3c4ccccc4cc4ccccc34)C(=O)CCC3CCN(Cc4ccccc4)CC3)ccc21` [Example 56, N-{2-[2-(4-Amidinophenyl)-ethyl]-1-methyl-benzimidazol-5-yl}-N-(anthracen-9-ylmethyl)-[3-(1-benzyl-piperidin-4-yl)-propionamide]-dihydro-chloride] it is 90.6 nM.

As for `CCN(CC)CC(=O)N(Cc1cccc2ccccc12)c1ccc2c(c1)nc(CCc1ccc(C(=N)N)cc1)n2C` [Example 66, N-{2-[2-(4-Amidinophenyl)-ethyl]-1-methyl-benzimidazol-5-yl}-N-( - naphthylmethyl)-[2-diethylaminoacetamide]-dihydrochloride], the IC50 was 27 nM.

Take `Cn1c(CCc2ccc(C(=N)N)cc2)nc2cc(N(Cc3cccc4ccccc34)C(=O)CN3CCC(Cc4ccccc4)CC3)ccc21` [Example 70, N-{2-[2-(4-Amidinophenyl)-ethyl]-1-methyl-benzimidazol-5-yl}-N-( - naphthylmethyl)-[2-(4-benzyl-4-piperidin-1-yl)-acetamide]-dihydro-chloride]: the IC50 is 3.9 nM. In the case of `Cn1c(CCc2ccc(C(=N)N)cc2)nc2cc(N(Cc3ccc4ccccc4c3)C(=O)CCCc3ccc(N)cc3)ccc21` [Example 55, N-{2-[2-(4-Amidinophenyl)-ethyl]-1-methyl-benzimidazol-5-yl}-N-(β-naphthylmethyl)-[4-(4-aminophenyl)-butyroamide]-dihydrochloride], the IC50 was found to be 172 nM.

With `Cn1c(CCc2ccc(C(=N)N)cc2)nc2cc(N(Cc3cccc4ccccc34)C(=O)CO)ccc21` [Example 77, N-{2-[2-(4-Amidinophenyl)-ethyl]-1-methyl-benzimidazol-5-yl}-N-(- naphthylmethyl)-[3-hydroxy-acetamide]-hydrochloride], the IC50 worked out at 110 nM. For the compound `Cn1c(CCc2ccc(C(=N)N)cc2)nc2cc(N(Cc3cccc4ccccc34)C(=O)CNCc3ccccc3[N+](=O)[O-])ccc21` [Example 49, N-{2-[2-(4-Amidinophenyl)-ethyl]-1-methyl-benzimidazol-5-yl}-N-( - naphthylmethyl)-[2-(2-nitrobenzylamino)-acctamide]-dihydrochloride], the IC50 worked out at 13 nM. The figure for “N-{2-[2-(4-Amidinophenyl)-ethyl]-1- methyl-benzimidazol-5-yl}-N-( - naphthyl)-[4- dimethylaminobenzylamino- acetamide]-dihydrochloride [Example 21]” is 11 nM; for `Cn1c(CCc2ccc(C(=N)N)cc2)nc2cc(N(Cc3cccc4ccccc34)C(=O)CNCc3ccc(F)cc3)ccc21` [Example 61, N-{2-[2-(4-Amidinophenyl)-ethyl]-1-methyl-benzimidazol-5-yl}-N-( - naphthylmethyl)-[2-(4-fluorobenzylamino)-acetamide]-dihydrochloride] it is 39 nM. In the case of `Cn1c(CCc2ccc(C(=N)N)cc2)nc2cc(N(Cc3ccc4ccccc4c3)C(=O)CCc3ccc(C(=N)N)cc3)ccc21` [Example 9, N-{2-[2-(4-Amidinophenyl)-ethyl]-1- -methy-benzimidazol-5-yl}-N-β-naphthylmethyl-[3-(4-amidinophenyl)-propionamide]-dihydrochloride], the IC50 stood at 24 nM. Regarding `Cn1c(CCc2ccc(C(=N)N)cc2)nc2cc(N(Cc3cccc4ccccc34)C(=O)COCc3ccc([N+](=O)[O-])cc3)ccc21` [Example 75, N-{2-[2-(4-Amidinophenyl)-ethyl]-1-methyl-benzimidazol-5-yl}-N-(-- naphthylmethyl)-[2-(4-nitrobenzyloxy)-acetamide]-hydrochloride], the IC50 turned out to be 17.2 nM. The figure for `Cn1c(CCc2ccc(C(=N)N)cc2)nc2cc(N(CCC(c3ccccc3)c3ccccc3)C(=O)CCc3ccc(C(=N)N)cc3)ccc21` [Example 10, N-{2-[2-(4-Amidinophenyl)-ethyl]-1-methyl-benzimidazol-5-yl}-N-(3,3-diphenylpropyl)-[3-(4-amidinophenyl)-propionamide]-dihydrochloride] is 16 nM. As to `Cn1c(CCc2ccc(C(=N)N)cc2)nc2cc(N(Cc3cccc4ccccc34)C(=O)CCC3CCN(Cc4ccccc4)CC3)ccc21` [Example 35, N-{2-[2-(4-Amidinophenyl)-ethyl]-1-methyl-benzimidazol-5-yl}-N-( - naphthylmethyl)-[3-(1-benzyl-piperidin-4-yl)-propionamide]-dihydro-chloride], the IC50 amounted to 14 nM. The figure for `Cn1c(CCc2ccc(C(=N)N)cc2)nc2cc(N(Cc3cccc4ccccc34)C(=O)C=Cc3ccccn3)ccc21` [Example 67, N-{2-[2-(4-Amidinophenyl)-ethyl]-1-methyl-benzimidazol-5-yl}-N-( - naphthylmethyl)-[3-(pyridin-2-yl)-acrylamide]-hydrochloride] is 39 nM; for `Cn1c(CCc2ccc(C(=N)N)cc2)nc2cc(N(Cc3cccc4ccccc34)C(=O)CCCCN)ccc21` [Example 24, N-{2-[2-(4-Amidinophenyl)-ethyl]-1-methyl-benzimidazol-5-yl}-N-( - naphthylmethyl)-[5-amino-pentanoic acid amide]-dihydrochloride] it is 29 nM; for `Cn1c(CCc2ccc(C(=N)N)cc2)nc2cc(N(Cc3cccc4ccccc34)C(=O)CN3CCC[C@H]3C(N)=O)ccc21` [Example 72] it is 58.4 nM. The figure for `CN(C)CCN(C)CC(=O)N(Cc1cccc2ccccc12)c1ccc2c(c1)nc(CCc1ccc(C(=N)N)cc1)n2C` [Example 41, N-{2-[2-(4-Amidinophenyl)-ethyl]-1-methyl-benzimidazol-5-yl}-N-(α-naphthylmethyl)-[2-(N-(2-dimethylaminoethyl)-N-methylamino)-acetamide]-trihydrochloride] is 18 nM; for `CN(C)CCCC(=O)N(Cc1ccccc1)c1ccc2c(c1)nc(CCc1ccc(C(=N)N)cc1)n2C` [Example 37, N-{2-[2-(4-Amidinophenyl)-ethyl]-1-methyl-benzimidazol-5-yl}-N-benzyl-[4-dimethyl-amino-butanoic acid amide]-dihydrochloride] it is 76 nM; for `Cn1c(CCc2ccc(C(=N)N)cc2)nc2cc(NC(=O)C(N)Cc3ccc(C(=N)N)cc3)ccc21` (centres unmarked) [Example 4, N-{2-[2-(4-Amidinophenyl)-ethyl]-1-methyl-benzimidazol-5-yl}-[2-amino-3-(p-amidinophenyl)-propionic Acid Amide]-trihydrochloride] it is 55 nM. `Cn1c(CCc2ccc(C(=N)N)cc2)nc2cc(N(Cc3ccc4ccccc4c3)C(=O)CNCc3ccc([N+](=O)[O-])cc3)ccc21` [Example 53, N-{2-[2-(4-Amidinophenyl)-ethyl]-1-methyl-benzimidazol-5-yl}-N-(β-naphthylmethyl)-[2-(4-nitrobenzylamino)-acetamide]-hydrochloride]: the IC50 was determined as 92 nM.
